Experimental data published in patent US4581165A, “Anti-diabetic compounds” (Eli Lilly and Company, priority 1984, dated 1986).

System: isolated rat adipocytes
Assay: Biological Activity in Isolated Rat Adipocytes (incorporation of 2-3H-glucose in total fat cell lipid)
Type: cell-based
Details: 2-3H-glucose incorporation in total fat cell lipid, 37° for 1 hr, mean±SEM
Description: Adipocytes were prepared from epididymal fat pads by a modification (Huber, supra) of the collagenase digestion procedure of Rodbell, supra. Krebs-Ringer-HEPES (KRH) buffer, pH 7.4, containing 4% bovine serum albumin and 0.55 mM glucose was used in all isolation and incubation steps.
Biological activity was assessed according to the method of Moody, A. J., Stan, M. A., Stan, M., and Glieman, J., Horm. Metab. Res. 6, 12-16 (1974) by monitoring the incorporation of 2-^3 H-glucose in total fat cell lipid. […] Radioactivity was determined in a Searle Isocap 300 liquid scintillation counter at an efficiency of approximately 30%. Blanks were prepared in which the scintillation fluid was added to the vials prior to the addition of cells. The average counts obtained from these vials were subtracted from those observed in all other samples.
Competitive binding curves and biological activity dose-response curves were analyzed using the PREFIT and ALLFIT programs [DeLean, A., Munson, P. J., and Rodbard, D., Am. J. Physiol. 235, E97-E102 (1978)] based on a four-parameter logistic model. These analyses indicated the concentration of insulin or proinsulin necessary to produce a half-maximal response, as well as the maximal and minimal values. All values are presented as the mean±SEM.

Row | Substance | ED50
1 | Human Proinsulin: human proinsulin, starting material and reference; relative potency set to 1 | 1.24 ± 0.2 × 10^-8 M
2 | Human Insulin: human insulin, reference in the binding and activity assays | 5.32 ± 0.7 × 10^-11 M
